Measurements from patent US20250195513A1, “DEGRADATION OF IRAK4 BY CONJUGATION OF IRAK4 INHIBITORS WITH E3 LIGASE LIGAND AND METHODS OF USE” (BeiGene, Ltd., priority 2022, published 2025).

Columns and labels:
IRAK4 [1] = biological target: T1, IRAK4 (Homo sapiens, UniProt Q9NWZ3); assay: IRAK4 Degradation Assay (Karpas299, HTRF/TR-FRET); type: cell-based; details: Karpas-299 cells; for Dmax: maximum percentage of degradation
T1 construct: endogenous in cells; host or cells: Karpas299
T1 sequence (Q9NWZ3 1-460): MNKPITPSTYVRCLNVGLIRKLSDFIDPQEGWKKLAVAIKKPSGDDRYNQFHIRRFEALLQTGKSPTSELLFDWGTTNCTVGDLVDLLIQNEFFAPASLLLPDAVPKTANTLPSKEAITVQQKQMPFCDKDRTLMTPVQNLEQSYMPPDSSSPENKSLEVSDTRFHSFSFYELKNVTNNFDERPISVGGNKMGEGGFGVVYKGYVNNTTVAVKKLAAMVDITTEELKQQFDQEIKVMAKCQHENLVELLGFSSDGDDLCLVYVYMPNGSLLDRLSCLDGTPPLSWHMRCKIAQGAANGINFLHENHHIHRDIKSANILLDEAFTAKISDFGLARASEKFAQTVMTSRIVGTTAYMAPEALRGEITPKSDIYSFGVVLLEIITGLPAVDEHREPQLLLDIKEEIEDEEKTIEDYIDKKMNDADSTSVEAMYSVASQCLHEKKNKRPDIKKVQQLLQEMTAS
Outline: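 Karpas299 cells at 0.2 million per well were exposed to serially diluted compounds for 24 h or 5 h, then lysed. IRAK4 remaining in lysates was quantified by HTRF (665/620 nm) after overnight antibody incubation at room temperature. Percent degradation was fitted to a four-parameter curve to give IC50 (DC50).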

IRAK4 [2] = biological target: T1, IRAK4; assay: IRAK4 Degradation Assay with Human Serum (Karpas299, HTRF/TR-FRET); type: cell-based; details: Karpas-299 in human serum, 24 hrs treatment; for DC50: read-out: IRAK4 degradtion with human serum assay DC50; for Dmax: read-out: IRAK4 degradtion with human serum assay Dmax (%)
Outline: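 Karpas299 cells in human AB serum (0.2 million/well) treated with serial compound dilutions for 24 h. After lysis, IRAK4 quantified by HTRF (overnight antibody incubation at room temperature, 665/620 nm read). Degradation percentage fitted to four-parameter curve to give DC50.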

[3] = 5 h treatment, read-out: IRAK4 in Karpas-299 (5 h) Dmax (%)
[4] = 5 h treatment, read-out: IRAK4 in Karpas-299 (5 h) DC50
[5] = 24 h treatment, read-out: IRAK4 in Karpas-299 (24 h) Dmax (%)
[6] = 24 h treatment, read-out: IRAK4 in Karpas-299 (24 h) DC50

SMILES	Dmax (IRAK4 [1]; [3])	DC50 (IRAK4 [1]; [4])	Dmax (IRAK4 [1]; [5])	DC50 (IRAK4 [1]; [6])	DC50 (IRAK4 [2])	Dmax (IRAK4 [2])
CC(C)(O)c1cc2nn([C@H]3CC[C@H](N4CCN(C5CCN(c6ccc(C7CCC(=O)NC7=O)nc6)CC5)CC4)CC3)cc2cc1NC(=O)c1ccc2cc(C#N)cnn12 (stereo partly drawn) [Example 254, 3-cyano-N-(2-((1r,4r)-4-(4-(1-(6-(2,6-dioxopiperidin-3-yl)pyridin-3-yl)piperidin-4-yl)piperazin-1-yl)cyclohexyl)-6-(2-hydroxypropan-2-yl)-2H-indazol-5-yl)pyrrolo[1,2-b]pyridazine-7-carboxamide]	97%	6.7 nM	96%	4.4 nM	25 nM	98%
Cn1c(=O)n(C2CCC(=O)NC2=O)c2cccc(CCCN3CCN(C45CC(n6cc7cc(NC(=O)c8ccc9cc(C#N)cnn89)c(C(C)(C)O)cc7n6)(C4)C5)CC3)c21 (stereo not drawn) [Example 350, 3-cyano-N-(2-(3-(4-(3-(1-(2,6-dioxopiperidin-3-yl)-3-methyl-2-oxo-2,3-dihydro-1H-benzo[d]imidazol-4-yl)propyl)piperazin-1-yl)bicyclo[1.1.1]pentan-1-yl)-6-(2-hydroxypropan-2-yl)-2H-indazol-5-yl)pyrrolo[1,2-b]pyridazine-7-carboxamide]			89%	2.1 nM	16 nM	97%
CC(C)(O)c1cc2nn(C3CCC(N4C[C@@H]5CN(C6CCN(c7cc(F)c([C@H]8CCC(=O)NC8=O)c(F)c7)CC6)C[C@H]5C4)CC3)cc2cc1NC(=O)c1ccc2cc(C#N)cnn12 (stereo partly drawn) [Example 361, 3-cyano-N-(2-((1R,4r)-4-((3aR,6aR)-5-(1-(4-((R)-2,6-dioxopiperidin-3-yl)-3,5-difluorophenyl)piperidin-4-yl)hexahydropyrrolo[3,4-c]pyrrol-2(1H)-yl)cyclohexyl)-6-(2-hydroxypropan-2-yl)-2H-indazol-5-yl)pyrrolo[1,2-b]pyridazine-7-carboxamide]			97%	4.3 nM	5 nM	93%
CC(C)(O)c1cc2nn([C@H]3CC[C@H](N4CCN(C[C@H]5C[C@@H](c6cc(F)c([C@H]7CCC(=O)NC7=O)c(F)c6)C5)CC4)CC3)cc2cc1NC(=O)c1ccc2cc(C#N)cnn12 [Example 383, 3-cyano-N-(2-((1R,4r)-4-(4-(((1S,3S)-3-(4-((R)-2,6-dioxopiperidin-3-yl)-3,5-difluorophenyl)cyclobutyl)methyl)piperazin-1-yl)cyclohexyl)-6-(2-hydroxypropan-2-yl)-2H-indazol-5-yl)pyrrolo[1,2-b]pyridazine-7-carboxamide]			94%	1.6 nM	5.8 nM	93%
COC[C@@H]1CN([C@H]2CC[C@H](n3cc4cc(NC(=O)c5ccc6cc(C#N)cnn56)c(C(C)(C)O)cc4n3)CC2)CCN1C1CCN(c2ccc(C3CCC(=O)NC3=O)nc2C)CC1 (stereo partly drawn) [Example 418, 3-cyano-N-(2-((1S,4r)-4-((3S)-4-(1-(6-(2,6-dioxopiperidin-3-yl)-2-methylpyridin-3-yl)piperidin-4-yl)-3-(methoxymethyl)piperazin-1-yl)cyclohexyl)-6-(2-hydroxypropan-2-yl)-2H-indazol-5-yl)pyrrolo[1,2-b]pyridazine-7-carboxamide]			94%	1.8 nM	6.1 nM	100%

Next, values leading:

Dmax (IRAK4 [1]; [3])	DC50 (IRAK4 [1]; [4])	Dmax (IRAK4 [1]; [5])	DC50 (IRAK4 [1]; [6])	DC50 (IRAK4 [2])	Dmax (IRAK4 [2])	SMILES
		97%	1.6 nM	4 nM	97%	Cc1nc(C2CCC(=O)NC2=O)ccc1N1CCC(N2CCN(C34CC(n5cc6cc(NC(=O)c7ccc8cc(C#N)cnn78)c(C(C)(C)O)cc6n5)(C3)C4)CC2)CC1 (stereo not drawn) [Example 419, 3-cyano-N-(2-(3-(4-(1-(6-(2,6-dioxopiperidin-3-yl)-2-methylpyridin-3-yl)piperidin-4-yl)piperazin-1-yl)bicyclo[1.1.1]pentan-1-yl)-6-(2-hydroxypropan-2-yl)-2H-indazol-5-yl)pyrrolo[1,2-b]pyridazine-7-carboxamide]
		97%	1 nM	32 nM	94%	CC(C)(O)c1cc2nn([C@H]3CC[C@H](N4CCN(C(=O)C5CCN(c6ccc7c(c6)C(=O)N(C6CCC(=O)NC6=O)C7=O)CC5)CC4)CC3)cc2cc1NC(=O)c1ccc2cc(C#N)cnn12 (stereo partly drawn) [Example 429, 3-cyano-N-(2-((1r,4r)-4-(4-(1-(2-(2,6-dioxopiperidin-3-yl)-1,3-dioxoisoindolin-5-yl)piperidine-4-carbonyl)piperazin-1-yl)cyclohexyl)-6-(2-hydroxypropan-2-yl)-2H-indazol-5-yl)pyrrolo[1,2-b]pyridazine-7-carboxamide]
93%	2.2 nM	96%	1.3 nM	25 nM	103%	CC(C)(O)c1cc2nn(C3CCN(C4CCN(C(=O)[C@@H]5CCN(c6cc(F)c([C@H]7CCC(=O)NC7=O)c(F)c6)C5)CC4)CC3)cc2cc1NC(=O)c1ccc2cc(C#N)cnn12 [Example 347, 3-cyano-N-(2-(1′-((R)-1-(4-((R)-2,6-dioxopiperidin-3-yl)-3,5-difluorophenyl)pyrrolidine-3-carbonyl)-[1,4′-bipiperidin]-4-yl)-6-(2-hydroxypropan-2-yl)-2H-indazol-5-yl)pyrrolo[1,2-b]pyridazine-7-carboxamide]
		95%	0.8 nM	15 nM	97%	CC(C)(O)c1cc2nn([C@H]3CC[C@H](CN4CCN(C5CN(c6cc(F)c([C@H]7CCC(=O)NC7=O)c(F)c6)C5)CC4)CC3)cc2cc1NC(=O)c1ccc2cc(C#N)cnn12 [Example 421, 3-cyano-N-(2-((1r,4r)-4-((4-(1-(4-((R)-2,6-dioxopiperidin-3-yl)-3,5-difluorophenyl)azetidin-3-yl)piperazin-1-yl)methyl)cyclohexyl)-6-(2-hydroxypropan-2-yl)-2H-indazol-5-yl)pyrrolo[1,2-b]pyridazine-7-carboxamide]
		96%	0.7 nM	126 nM	97%	COC[C@H]1CN(C(=O)C2CN(c3cc(F)c([C@H]4CCC(=O)NC4=O)c(F)c3)C2)CCN1[C@H]1CC[C@H](n2cc3cc(NC(=O)c4ccc5cc(C#N)cnn45)c(C(C)(C)O)cc3n2)CC1 [Example 184, 3-cyano-N-(2-((1R,4r)-4-((R)-4-(1-(4-((R)-2,6-dioxopiperidin-3-yl)-3,5-difluorophenyl)azetidine-3-carbonyl)-2-(methoxymethyl)piperazin-1-yl)cyclohexyl)-6-(2-hydroxypropan-2-yl)-2H-indazol-5-yl)pyrrolo[1,2-b]pyridazine-7-carboxamide]
		95%	0.8 nM	3.5 nM	88%	CC(C)(O)c1cc2nn([C@H]3CC[C@H](N4CCN(CC5CCN(c6ccc7c(c6)CN(C6CCC(=O)NC6=O)C7=O)CC5)CC4)CC3)cc2cc1NC(=O)c1ccc2cc(C#N)cnn12 (stereo partly drawn) [Example 353, 3-cyano-N-(2-((1r,4r)-4-(4-((1-(2-(2,6-dioxopiperidin-3-yl)-1-oxoisoindolin-5-yl)piperidin-4-yl)methyl)piperazin-1-yl)cyclohexyl)-6-(2-hydroxypropan-2-yl)-2H-indazol-5-yl)pyrrolo[1,2-b]pyridazine-7-carboxamide]
